The text below walks through data of ChEMBL document CHEMBL5120961, “N-Arylimidazoliums as Highly Selective Biomimetic Antimicrobial Agents” (J Med Chem, 2022).

Converted amounts (≈) assume the structure as drawn. The source made the active and inactive calls. Bridge positions count the residues as written; N and C are the ends. Square brackets hold non-standard residues; d marks the D form. Peptide text beside a SMILES is read from it. * marks the point of attachment. X1 = CC[C@H](C)CCCCC(=O)*; Dab = NCC[C@H](N)C(=O)O Where only a bound is given, the exact number is not on record here.

In series [1] the test system is Staphylococcus aureus. Description: Antibacterial activity against methicillin-resistant Staphylococcus aureus ATCC 43300 assessed as inhibition of bacterial growth incubated for 16 to 18 hrs by broth microdilution method. Type of series: functional. As to conditions: time 16-18 hrs.
Series [2] relates to Staphylococcus aureus. Description: Antibacterial activity against Staphylococcus aureus ATCC 25923 assessed as inhibition of bacterial growth incubated for 16 to 18 hrs by broth microdilution method. The class given is functional. The note with it: time 16-18 hrs.
The subject of series [3] is Escherichia coli. Description: Antibacterial activity against Escherichia coli ATCC 25922 assessed as inhibition of bacterial growth incubated for 16 to 18 hrs by broth microdilution method. The note with it: time 16-18 hrs. The class given is functional.
Series [4] in a line: Selectivity ratio of HC5 for hemolytic activity in rabbit erythrocytes to MIC for antibacterial activity against methicillin-resistant Staphylococcus aureus ATCC 43300. Type of series: toxicity, cell-based.
For series [5], the system named is Erythrocyte. Description: Hemolytic activity in rabbit erythrocytes incubated for 1 hr. Type of series: toxicity, cell-based, Oryctolagus cuniculus.
The test system of series [6] is Staphylococcus aureus. Description: Disruption of established biofilm in methicillin-resistant Staphylococcus aureus ATCC 43300 assessed as reduction of relative biofilm mass at 128XMIC incubated for 24 hrs by crystal violet staining based analysis. The class given is functional.
In series [7] the test system is Enterococcus faecalis. Briefly: Antibacterial activity against Enterococcus faecalis ATCC 29212 assessed as inhibition of bacterial growth incubated for 16 to 18 hrs by broth microdilution method. Type of series: functional. As to conditions: time 16-18 hrs. (In general: Broth dilution looks for growth in wells or tubes with falling amounts of substance.)
The subject of series [8] is Staphylococcus aureus. Description: Inhibition of biofilm formation in methicillin-resistant Staphylococcus aureus ATCC 43300 incubated for 24 hrs under stationary conditions by crystal violet staining based analysis. Type of series: functional, organism-based.
For series [9], the system named is Staphylococcus aureus. Briefly: Antibacterial activity against methicillin-resistant Staphylococcus aureus ATCC 43300 infected in BALB/c mouse assessed as reduction of histopathological changes of pulmonary tissue at 4 mg/kg, iv administered at 1, 6, 25 and 30 hrs post-infection and measured on day 7 post-infection by hematoxylin-eosin staining based analysis. As to conditions: time 7.0 day. The class given is functional, organism-based.

The subject of series [10] is Klebsiella pneumoniae. Briefly: Antibacterial activity against Klebsiella pneumoniae CMCC(B) 46117 assessed as inhibition of bacterial growth incubated for 16 to 18 hrs by broth microdilution method. Type of series: functional. The note with it: time 16-18 hrs.
Series [11] has as its system Pseudomonas aeruginosa. Briefly: Antibacterial activity against Pseudomonas aeruginosa ATCC 27853 assessed as inhibition of bacterial growth incubated for 16 to 18 hrs by broth microdilution method. The class given is functional. The note with it: time 16-18 hrs.
Series [12] relates to Acinetobacter baumannii. Description: Antibacterial activity against Acinetobacter baumannii ATCC 19606 assessed as inhibition of bacterial growth incubated for 16 to 18 hrs by broth microdilution method. The class given is functional. The note with it: time 16-18 hrs.

In general, MIC refers to the smallest concentration in the dilution series that meets the test's criterion for growth inhibition. Turning to `CCCC[n+]1ccn(-c2ccc(C#Cc3ccc(-n4cc[n+](CCCC)c4)cc3)cc2)c1.[Br-].[Br-]`, the MIC stood at 4 µg/mL in series [1], 2 µg/mL in series [2] and 8 µg/mL in [3]. The selectivity ratio in series [4] was 500. The HC5 in series [5] turned out to be 2000 µg/mL.
In the same order, the values of `CCCCCCCC[n+]1ccn(-c2ccc(C#Cc3ccc(-n4cc[n+](CCCCCCCC)c4)cc3)cc2)c1.[Br-].[Br-]` are 1 µg/mL, 1 µg/mL, 1 µg/mL, 200 and 200 µg/mL.
The matching figures for `CCCCCC[n+]1ccn(-c2ccc(CCc3ccc(-n4cc[n+](CCCCCC)c4)cc3)cc2)c1.[Br-].[Br-]`: 1 µg/mL, 0.5 µg/mL, 4 µg/mL, 1000 and 1000 µg/mL.
In the same order, the values of `CCCCCCCC[n+]1ccn(CCCCn2cc[n+](CCCCCCCC)c2)c1.[Br-].[Br-]` are 8 µg/mL, 4 µg/mL, 32 µg/mL, 50 and 400 µg/mL.
Consider `CCn1cc(C(=O)O)c(=O)c2cc(F)c(N3CCNCC3)cc21` [NORFLOXACIN], for which the MIC in series [1] and in [2] was 1 µg/mL (≈ 3.13 µM) in each case.
Consider `CN[C@H](CC(C)C)C(=O)N[C@H]1C(=O)N[C@@H](CC(N)=O)C(=O)N[C@H]2C(=O)N[C@H]3C(=O)N[C@H](C(=O)N[C@H](C(=O)O)c4cc(O)cc(O)c4-c4cc3ccc4O)[C@H](O)c3ccc(c(Cl)c3)Oc3cc2cc(c3O[C@@H]2O[C@H](CO)[C@@H](O)[C@H](O)[C@H]2O[C@H]2C[C@](C)(N)[C@H](O)[C@H](C)O2)Oc2ccc(cc2Cl)[C@H]1O` [VANCOMYCIN], for which the “inhibition (INH)” value in series [6] turned out to be 37%. Further, the MIC in series [7] worked out at 1 µg/mL (≈ 0.69 µM). The inhibition result in [8] was “Active”. For the same compound, in [9], the outcome was Active.
As for `CC[C@H](C)CCCCC(=O)N[C@@H](CCN)C(=O)N[C@H](C(=O)N[C@@H](CCN)C(=O)N[C@H]1CCNC(=O)[C@H]([C@@H](C)O)NC(=O)[C@H](CCN)NC(=O)[C@H](CCN)NC(=O)[C@H](CC(C)C)NC(=O)[C@@H](Cc2ccccc2)NC(=O)[C@H](CCN)NC1=O)[C@@H](C)O` (X1-[Dab]T[Dab][Dab][Dab][dF]L[Dab][Dab]T; lactam 4-C), the MIC in [3], in series [10], in series [11] and in series [12] was 1 µg/mL (≈ 0.831 µM) each time.
`C(#Cc1ccc(-n2cc[n+](Cc3ccccc3)c2)cc1)c1ccc(-n2cc[n+](Cc3ccccc3)c2)cc1.[Br-].[Br-]`: the values for the MIC in [1], in [2] and in [3] were 1 µg/mL, 0.5 µg/mL and 2 µg/mL, respectively. Besides, the selectivity ratio in [4] came to 200. This compound registered an HC5 in series [5] of 200 µg/mL.
In the same order, the values of `CCCCCC[n+]1ccn(-c2ccc(/C=C/c3ccc(-n4cc[n+](CCCCCC)c4)cc3)cc2)c1.[Br-].[Br-]` are 1 µg/mL, 1 µg/mL, 2 µg/mL, 600 and 600 µg/mL.
In the same order, the values of `CC[n+]1ccn(-c2ccc(C#Cc3ccc(-n4cc[n+](CC)c4)cc3)cc2)c1.[Br-].[Br-]` are 64 µg/mL, 64 µg/mL, 8 µg/mL, 125 and 8000 µg/mL.
For the compound `C(#Cc1ccc(-n2ccnc2)cc1)c1ccc(-n2ccnc2)cc1`, the MIC in series [1], in [2] and in [3] was more than 500 µg/mL each time.
With `CCCCCC[n+]1ccn(CCCCn2cc[n+](CCCCCC)c2)c1.[Br-].[Br-]`, the MIC in [1] amounted to 500 µg/mL; in [2] it was 125 µg/mL; in series [3], 125 µg/mL. The selectivity ratio in [4] is 16. Besides, the HC5 in series [5] was 8000 µg/mL.
